Laboratory results reported in US11716994B2, “Combinations of Yersinia entomophaga and pesticides or other substances” (priority 2017, dated 2023).
Read-outs that look alike come from different tables or passages of the source.

Assays:
Colorado potato beetle = test: Tomato leaf disk mortality assay, Y. entomophaga cells with chemical insecticides; conditions: for mortality at 0.88 µg/mL: Leptinotarsa decemlineata, in Solanum lycopersicum, foliar
diamondback moth [1] = test: whole plant or invertebrate; conditions: for LT50 (95% confidence intervals): 2nd instar diamondback moth; for mortality at 0.29 µg/mL: Plutella xylostella, foliar, Abbott's corrected
Source text: (§1) These were set to dry for 1 hr.
as §1
These were set to dry for 1 hr. Cabbage disks were then dipped in either 1% Luria broth (LB) media solution (controls and thiacloprid alone treatments) or in 1% cell free filtrate from a culture Y. entomophaga isolate O24G3R (Y. entomophaga alone or in combination with thiacloprid treatments).

diamondback moth [2] = test: Leaf disk mortality assay, Y. entomophaga cells with chemical insecticides; conditions: for mortality at 0.29 µg/mL: Plutella xylostella, foliar; for % Mort. Chem. / LT50 Chem.: diamondback moth
black cutworm = test: as above; conditions: for % Mort. Chem. / LT50 Chem.: black cutworm
fall armyworm = test: as above
cabbage looper [3] = conditions: emamectin benzoate 0.02 mg/L
Method: To produce cell free filtrates, cultures of Yersinia entomophaga grown in LB medium were centrifuged at 11,448 (g) for 10 minutes. The supernatant was decanted from the centrifuged pellet and filtered through a 0.22 μm filter. Assays were performed to determine concentrations of Yen-TC (toxin complex) using ELISA, and chitinase by measuring chitinase activity on specific substrates. […] This was done to estimate relative potency of the cell free filtrates. Insects were first pre-screened with a range of dilutions of cell free filtrates to select a concentration that provided moderate activity. […] Based on these initial screens, undiluted cell free filtrate was used for cabbage looper, fall armyworm, black cutworm, and Colorado potato beetle. […] In each of the Examples below, this is expressed as 1%.
Cabbage leaf disks were dipped in either acetone (controls and Y. entomophaga alone treatments) or novaluron (Sigma 32419) at 1.0 mg/L in acetone. These were set to dry for 1 hr. […] After the cabbage disks had dried for 1 hr, a single 3rd instar cabbage looper was added to each individual cabbage disk. A total of 20 insects were evaluate for each treatment. Insects were observed daily and scored as live or dead.

cabbage looper [4] = tested on: cabbage looper
Yersinia entomophaga = test: CFU counts after exposure of Yersinia entomophaga to insecticides; format: cell-based; conditions: 1 hour contact
Source text: To test combinations of Yersinia entomophaga and pesticides for their ability to produce a pesticidal effect, or an effect on plant growth or yield, we first put various insecticides in contact with Yersinia to identify insecticides that had minimal toxicity to Yersinia entomophaga. The logic was that, if Yersinia entomophaga is to function well in combination with a chemical insecticide, the chemical insecticide would ideally have low or no effect on the ability of Yersinia entomophaga to survive, grow and/or to function.
To perform this study, we selected amounts of various insecticides based on the percent of the specific insecticide in the insecticide composition obtained from a manufacturer. We also considered the application rate of the particular insecticide, as recommended by the manufacturer. […] Generally, the 1× amount was considered possibly the lowest amount of insecticide that may be considered as an effective amount for use in the combinations disclosed herein. For each insecticide, we also used a higher amount of insecticide (generally a 5× or 10× amount).
The 1× and 5×/10× amounts of each insecticide were added to tubes along with 1 ml of ethyl acetate. The tubes were mixed until the insecticides dissolved. The tubes were left open in a fume hood overnight to allow the ethyl acetate to evaporate. The insecticide remained in the tubes, as a solid coat on the interior surface of the tubes.
A growing culture of Yersinia entomophaga, grown in LB medium, was diluted and 1 ml of the diluted culture was added to each tube containing the dried insecticide. The tubes were mixed and then left on the bench top for 1 hour. Then, 100 μl from each tube was plated onto LB plates in triplicate in CFU assays. Plates were incubated at 25° C. for 48 hours and colonies were counted.

[5] = 48 h, read-out: % Mortality (2DAT)
[6] = 168 h, read-out: % Mortality (7DAT)
[7] = 3rd instar, deltamethrin 0.175 mg/L, isolate O43NEW 1×10^4 cfu/mL
[8] = 3rd instar, deltamethrin 1.75 mg/L, isolate O43NEW 1×10^4 cfu/mL
[9] = 3rd instar, emamectin benzoate 0.67 mg/L, isolate O23ZMJ 1×10^5 cfu/mL
[10] = 3rd instar, emamectin benzoate 0.002 mg/L, isolate O43NEW 1×10^3 cfu/mL

Compound: CC1(C)[C@H](C(=O)O[C@H](C#N)c2cccc(Oc3ccccc3)c2)[C@@H]1C=C(Br)Br [Deltamethrin]
- LT50 (95% confidence intervals) (Colorado potato beetle; 3rd instar larva, deltamethrin 0.88 mg/L, isolate O43NEW 1×10^7 cfu/mL): 11.6 days
- % Mort. Chem. (Colorado potato beetle; Colorado potato beetle, Deltamethrin 0.88 mg/L, 5 DAT): 30%
- LT50 Chem. (Colorado potato beetle; Colorado potato beetle, Deltamethrin alone 0.88 mg/L): 11.60 days
- mortality at 0.88 µg/mL (Colorado potato beetle; [5]): 30%
- mortality at 0.88 µg/mL (Colorado potato beetle; 120 h, read-out: % Mortality (5DAT)): 30%
- mortality at 0.88 µg/mL (Colorado potato beetle; 144 h, read-out: % Mortality (6DAT)): 30%
- mortality at 0.88 µg/mL (Colorado potato beetle; [6]): 30%
- mortality at 0.88 µg/mL (Colorado potato beetle; 216 h, read-out: % Mortality (9DAT)): 30%
- LT50 (95% confidence intervals) (diamondback moth [1]; deltamethrin 0.29 mg/L, O43NEW filtrate 1%, alone or combined): 11.58 days
- LT50 (95% confidence intervals) (diamondback moth [1]; deltamethrin […], O333A4 filtrate 1%, alone or combined): 12.78 days
- LT50 Chem. (diamondback moth [1]; Diamondback moth, deltamethrin 0.29 mg/L): 11.58 days
- % Mort. Chem. (diamondback moth [1]; Diamondback moth, deltamethrin 0.29 mg/L, 4 DAT): 16%
- LT50 Chem. (diamondback moth [1]; Diamondback moth, deltamethrin […]): 12.78 days
- mortality at 0.29 µg/mL (diamondback moth [1]; 48 h, read-out: % Mortality (2DAT), 2nd instar diamondback moth, deltamethrin 0.29 mg/L, O43NEW filtrate 1%, alone or combined, 2 DAT): 0%
- mortality at 0.29 µg/mL (diamondback moth [1]; 72 h, read-out: % Mortality (3DAT), 2nd instar diamondback moth, deltamethrin 0.29 mg/L, O43NEW filtrate 1%, alone or combined, 3 DAT): 5%
- mortality at 0.29 µg/mL (diamondback moth [1]; 96 h, read-out: % Mortality (4DAT), 2nd instar diamondback moth, deltamethrin 0.29 mg/L, O43NEW filtrate 1%, alone or combined, 4 DAT): 16%
- mortality at 0.29 µg/mL (diamondback moth [1]; 168 h, read-out: % Mortality (7DAT), 2nd instar diamondback moth, deltamethrin 0.29 mg/L, O43NEW filtrate 1%, alone or combined, 7 DAT): 21%
- mortality at 0.29 µg/mL (diamondback moth [1]; 216 h, read-out: % Mortality (9DAT), 2nd instar diamondback moth, deltamethrin 0.29 mg/L, O43NEW filtrate 1%, alone or combined, 9 DAT): 25%
- LT50 (95% confidence intervals) (diamondback moth [2]; 3rd instar, deltamethrin 0.29 mg/L, isolate O43NEW 1×10^3 cfu/mL): 11.58 days
- mortality at 0.29 µg/mL (diamondback moth [2]; [5]): 0%
- mortality at 0.29 µg/mL (diamondback moth [2]; 96 h, read-out: % Mortality (4DAT)): 16%
- mortality at 0.29 µg/mL (diamondback moth [2]; [6]): 21%
- mortality at 0.29 µg/mL (diamondback moth [2]; 240 h, read-out: % Mortality (10DAT)): 32%
- mortality at 0.29 µg/mL (diamondback moth [2]; 336 h, read-out: % Mortality (14DAT)): 54%
- mortality at 0.29 µg/mL (diamondback moth [2]; […], read-out: % Mortality (8DAT)): 24%
- % Mort. Chem. (diamondback moth [2]; Deltamethrin 0.29 mg/L, 8 DAT): 24%
- LT50 Chem. (diamondback moth [2]; Deltamethrin alone 0.29 mg/L): 11.58 days
- % Mortality (3DAT) (black cutworm; [7]): 5%
- % Mortality (6DAT) (black cutworm; [7]): 35%
- % Mortality (9DAT) (black cutworm; [7]): 55%
- % Mortality (10DAT) (black cutworm; [7]): 63%
- LT50 (95% confidence intervals) (black cutworm; [7]): 7.67 days
- % Mortality (3DAT) (black cutworm; [8]): 45%
- LT50 (95% confidence intervals) (black cutworm; [8]): 3.37 days
- % Mort. Chem. (black cutworm; Deltamethrin 0.175 mg/L, 6 DAT): 35%
- % Mort. Chem. (black cutworm; Deltamethrin 1.75 mg/L, 3 DAT): 45%
- LT50 Chem. (black cutworm; Deltamethrin alone 0.175 mg/L): 7.67 days
- LT50 Chem. (black cutworm; Deltamethrin alone 1.75 mg/L): 3.37 days

Compound: Emamectin benzoate
- % Mortality (4DAT) (fall armyworm; [9]): 20%
- LT50 (95% confidence intervals) in days (fall armyworm; [9]): 5.10 (4.65-5.59) days
- LT75 (95% confidence intervals) in days (fall armyworm; 3rd instar, emamectin benzoate 2 mg/L, isolate O43NEW 1×10^6 cfu/mL): 6.54 (5.76-7.44) days
- % Mort. Chem. (fall armyworm; fall armyworm, Emamectin benzoate 0.67 mg/L, 4 DAT): 20%
- LT50 Chem. (fall armyworm; fall armyworm, Emamectin benzoate alone 0.67 mg/L): 5.10 days
- LT50 Chem. (fall armyworm; fall armyworm, Emamectin benzoate alone 2 mg/L): 6.54 days
- % Mortality (5DAT) (cabbage looper [3]; 3rd instar cabbage looper, O43NEW undiluted filtrate, alone or combined, 5 DAT, Abbott's corrected): 5%
- % Mortality (12DAT) (cabbage looper [3]; 3rd instar cabbage looper, O43NEW undiluted filtrate, alone or combined, 12 DAT, Abbott's corrected): 94%
- LT50 Chem. (cabbage looper [3]; Cabbage Looper): 7.22 days
- % Mort. Chem. (cabbage looper [3]; Cabbage Looper, 5 DAT): 94%
- LT50 (95% confidence intervals) in days (diamondback moth [1]; 3rd instar diamondback moth, emamectin benzoate 0.002 mg/L, O43NEW filtrate 1%, alone or combined): 6.21 (5.38-7.14) days
- LT50 Chem. (diamondback moth [1]; Diamondback moth, emamectin benzoate 0.002 mg/L): 6.21 days
- % Mort. Chem. (cabbage looper [4]; cabbage looper, Emamectin benzoate 0.02 mg/L, 7 DAT): 13%
- % Mortality (7DAT) (cabbage looper [4]; in vivo): 13%
- LT50 (95% confidence intervals) in days (cabbage looper [4]; in vivo): 7.61 (7.08-8.19) days
- LT50 Chem. (cabbage looper [4]; in vivo): 7.61 days
- % Mortality (4DAT) (diamondback moth [2]; [10]): 5%
- LT50 (95% confidence intervals) in days (diamondback moth [2]; [10]): 6.21 (5.38-7.14) days
- % Mort. Chem. (diamondback moth [2]; Emamectin benzoate 0.002 mg/L, 4 DAT): 5%
- LT50 Chem. (diamondback moth [2]; Emamectin benzoate alone 0.002 mg/L): 6.21 days
- Average CFU (Yersinia entomophaga; 1.5 mg insecticide): 489 CFU
- Average CFU (Yersinia entomophaga; 15 mg insecticide): 459 CFU
